The supplement of paper PMC10307832

Legend:
Assay in all cases: relative viability (nuclei count vs DMSO), 5 days (fraction); higher = more cells survive
[1] = compound: CN(C)C/C=C/C(=O)Nc1cc2c(Nc3ccc(F)c(Cl)c3)ncnc2cc1O[C@H]1CCOC1 [Afatinib]
Summary of the method: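 Lung cancer cell lines in 1536-well plates were exposed by pinning to five library-drug doses (not always all listed) √10 apart, following an overnight hold at 37 °C. MetaXpress counted Hoechst-stained nuclei from 4× images taken after 5 days without medium change. Viability is the median ratio of treated-well to vehicle-well nuclei across plates. Plates required control CV below 25% and at least one doubling.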

[2] = compound: CN(C)C/C=C/C(=O)Nc1cc2c(Nc3ccc(F)c(Cl)c3)ncnc2cc1O[C@H]1CCOC1 [Afatinib] + Cc1cc(Nc2cc(N3CCN(C)CC3)nc(Sc3ccc(NC(=O)C4CC4)cc3)n2)n[nH]1 [Tozasertib] (partner 0.1 µM)
Summary of the method: (§1)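 Lung cancer cell lines, seeded in 1536-well plates, were treated the following day by pin tool with a single drug or with five library-drug doses (not always all listed) in √10 steps on top of a fixed anchor-drug dose. Cells were fixed and nuclei stained in one step after 5 days, and nuclei were counted. Relative viability is the nuclei count for treated wells divided by that for vehicle wells, reported as medians of duplicate plates.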

[3] = compound: CN(C)C/C=C/C(=O)Nc1cc2c(Nc3ccc(F)c(Cl)c3)ncnc2cc1O[C@H]1CCOC1 [Afatinib] + COc1cc2c(Oc3ccc(NC(=O)C4(C(=O)Nc5ccc(F)cc5)CC4)cc3F)ccnc2cc1OCCCN1CCOCC1 [Foretinib] (partner 0.25 µM)
Summary of the method: as §1

[4] = compound: CN(C)C/C=C/C(=O)Nc1cc2c(Nc3ccc(F)c(Cl)c3)ncnc2cc1O[C@H]1CCOC1 [Afatinib] + Nc1nc2[nH]cc(CCc3ccc(C(=O)N[C@@H](CCC(=O)O)C(=O)O)cc3)c2c(=O)[nH]1 [Pemetrexed] (partner 0.2 µM)
Summary of the method: as §1

[5] = compound: CN(C)C/C=C/C(=O)Nc1cc2c(Nc3ccc(F)c(Cl)c3)ncnc2cc1O[C@H]1CCOC1 [Afatinib] + CC(=O)c1c(C)c2cnc(Nc3ccc(N4CCNCC4)cn3)nc2n(C2CCCC2)c1=O [Palbociclib] (partner 0.5 µM)
Summary of the method: as §1

[6] = compound: CN(C)C/C=C/C(=O)Nc1cc2c(Nc3ccc(F)c(Cl)c3)ncnc2cc1O[C@H]1CCOC1 [Afatinib] + Cc1nc(Nc2ncc(C(=O)Nc3c(C)cccc3Cl)s2)cc(N2CCN(CCO)CC2)n1 [Dasatinib] (partner 0.075 µM)
Summary of the method: as §1

[7] = compound: CN(C)C/C=C/C(=O)Nc1cc2c(Nc3ccc(F)c(Cl)c3)ncnc2cc1O[C@H]1CCOC1 [Afatinib] + O=C(c1cc(Cc2n[nH]c(=O)c3ccccc23)ccc1F)N1CCN(C(=O)C2CC2)CC1 [Olaparib] (partner 8 µM)
Summary of the method: as §1

[8] = compound: CN(C)C/C=C/C(=O)Nc1cc2c(Nc3ccc(F)c(Cl)c3)ncnc2cc1O[C@H]1CCOC1 [Afatinib] + CCNC(=O)c1noc(-c2cc(C(C)C)c(O)cc2O)c1-c1ccc(CN2CCOCC2)cc1 [Luminespib] (partner 0.01 µM)
Summary of the method: as §1

[9] = compound: CN(C)C/C=C/C(=O)Nc1cc2c(Nc3ccc(F)c(Cl)c3)ncnc2cc1O[C@H]1CCOC1 [Afatinib] + Nc1ncn([C@H]2C[C@H](O)[C@@H](CO)O2)c(=O)n1 [Decitabine] (partner 2 µM)
Summary of the method: as §1

[10] = compound: CN(C)C/C=C/C(=O)Nc1cc2c(Nc3ccc(F)c(Cl)c3)ncnc2cc1O[C@H]1CCOC1 [Afatinib] + COc1cccc2cc(-c3nc([C@H]4CC[C@H](C(=O)O)CC4)n4ncnc(N)c34)[nH]c12 [OSI-027] (partner 0.5 µM)
Summary of the method: as §1

[11] = compound: CN(C)C/C=C/C(=O)Nc1cc2c(Nc3ccc(F)c(Cl)c3)ncnc2cc1O[C@H]1CCOC1 [Afatinib] + N=C(N)NC(=N)NCCc1ccccc1 [Phenformin] (partner 250 µM)
Summary of the method: as §1

[12] = compound: CN(C)C/C=C/C(=O)Nc1cc2c(Nc3ccc(F)c(Cl)c3)ncnc2cc1O[C@H]1CCOC1 [Afatinib] + NC(=O)Nc1cc(-c2cccc(F)c2)sc1C(=O)N[C@H]1CCCNC1 [AZD7762] (partner 0.2 µM)
Summary of the method: as §1

[13] = compound: CN(C)C/C=C/C(=O)Nc1cc2c(Nc3ccc(F)c(Cl)c3)ncnc2cc1O[C@H]1CCOC1 [Afatinib] + O=C(CCCCCCC(=O)Nc1ccccc1)NO [Vorinostat] (partner 1 µM)
Summary of the method: as §1

[14] = compound: CN(C)C/C=C/C(=O)Nc1cc2c(Nc3ccc(F)c(Cl)c3)ncnc2cc1O[C@H]1CCOC1 [Afatinib] + CC(=O)Nc1cccc(-n2c(=O)n(C3CC3)c(=O)c3c(Nc4ccc(I)cc4F)n(C)c(=O)c(C)c32)c1 [Trametinib] (partner 0.02 µM)
Summary of the method: as §1

## SW 900
[1]; 0.005 µM
  relative viability: 0.951
[1]; 0.01581 µM
  relative viability: 0.692
[1]; 0.05 µM
  relative viability: 0.844
[1]; 0.1581 µM
  relative viability: 0.872
[1]; 0.5 µM
  relative viability: 0.828
[2]; first compound 0.005 µM
  relative viability: 0.576
[2]; first compound 0.01581 µM
  relative viability: 0.646
[2]; first compound 0.05 µM
  relative viability: 0.61
[2]; first compound 0.1581 µM
  relative viability: 0.438
[2]; first compound 0.5 µM
  relative viability: 0.444
[3]; first compound 0.005 µM
  relative viability: 1.06
[3]; first compound 0.01581 µM
  relative viability: 1.18
[3]; first compound 0.05 µM
  relative viability: 0.873
[3]; first compound 0.1581 µM
  relative viability: 0.725
[3]; first compound 0.5 µM
  relative viability: 0.679
[4]; first compound 0.005 µM
  relative viability: 0.467
[4]; first compound 0.01581 µM
  relative viability: 0.445
[4]; first compound 0.05 µM
  relative viability: 0.497
[4]; first compound 0.1581 µM
  relative viability: 0.487
[4]; first compound 0.5 µM
  relative viability: 0.448
[5]; first compound 0.005 µM
  relative viability: 0.464
[5]; first compound 0.01581 µM
  relative viability: 0.354
[5]; first compound 0.05 µM
  relative viability: 0.438
[5]; first compound 0.1581 µM
  relative viability: 0.43
[5]; first compound 0.5 µM
  relative viability: 0.49
[6]; first compound 0.005 µM
  relative viability: 0.622
[6]; first compound 0.01581 µM
  relative viability: 0.323
[6]; first compound 0.05 µM
  relative viability: 0.683
[6]; first compound 0.1581 µM
  relative viability: 0.547
[6]; first compound 0.5 µM
  relative viability: 0.435
[7]; first compound 0.005 µM
  relative viability: 0.757
[7]; first compound 0.01581 µM
  relative viability: 0.726
[7]; first compound 0.05 µM
  relative viability: 0.89
[7]; first compound 0.1581 µM
  relative viability: 0.664
[7]; first compound 0.5 µM
  relative viability: 0.77
[8]; first compound 0.005 µM
  relative viability: 0.182
[8]; first compound 0.01581 µM
  relative viability: 0.198
[8]; first compound 0.1581 µM
  relative viability: 0.187
[8]; first compound 0.5 µM
  relative viability: 0.173
[9]; first compound 0.005 µM
  relative viability: 0.502
[9]; first compound 0.01581 µM
  relative viability: 0.334
[9]; first compound 0.05 µM
  relative viability: 0.378
[9]; first compound 0.1581 µM
  relative viability: 0.398
[9]; first compound 0.5 µM
  relative viability: 0.443
[10]; first compound 0.005 µM
  relative viability: 0.668
[10]; first compound 0.01581 µM
  relative viability: 0.395
[10]; first compound 0.05 µM
  relative viability: 0.605
[10]; first compound 0.1581 µM
  relative viability: 0.639
[10]; first compound 0.5 µM
  relative viability: 0.347
[11]; first compound 0.005 µM
  relative viability: 0.642
[11]; first compound 0.01581 µM
  relative viability: 0.499
[11]; first compound 0.05 µM
  relative viability: 0.682
[11]; first compound 0.1581 µM
  relative viability: 0.486
[11]; first compound 0.5 µM
  relative viability: 0.399
[12]; first compound 0.005 µM
  relative viability: 0.48
[12]; first compound 0.01581 µM
  relative viability: 0.546
[12]; first compound 0.05 µM
  relative viability: 0.615
[12]; first compound 0.1581 µM
  relative viability: 0.501
[12]; first compound 0.5 µM
  relative viability: 0.548
[13]; first compound 0.005 µM
  relative viability: 0.597
[13]; first compound 0.01581 µM
  relative viability: 0.364
[13]; first compound 0.05 µM
  relative viability: 0.544
[13]; first compound 0.1581 µM
  relative viability: 0.428
[13]; first compound 0.5 µM
  relative viability: 0.461
[14]; first compound 0.005 µM
  relative viability: 0.572
[14]; first compound 0.01581 µM
  relative viability: 0.657
[14]; first compound 0.05 µM
  relative viability: 0.759
[14]; first compound 0.1581 µM
  relative viability: 0.745
[14]; first compound 0.5 µM
  relative viability: 0.581
